Reference: patent US8124764B2, “Fused heterocyclyc inhibitor compounds” (Gilead Sciences, Inc., priority 2008, dated 2012)

Columns and labels:
HDAC 1 = HDAC 1 (Homo sapiens, UniProt Q13547); test: HDAC 1 inhibition assay with about 3 hours enzyme/compound preincubation (fluorophore/quencher peptide substrate); assay type: biochemical; details: 3-hour preincubation of enzyme with compound; read-out: HDAC 1 inhibitory activity (IC50 [μM]) (3-hour preincubation)
Description: HDAC inhibitory activity of the compound of Example 1 was measured by two types of assays in which HDAC 1 was used as a target molecule. The first assay was carried out without preincubation after addition of the enzyme. The test compound was suspended in and titrated in dmso. It was then spotted into a 384-well test plate. The enzyme, HDAC 1, was diluted in assay buffer containing 25 mM Tris-HCl (pH 8.0), 137 mM NaCl, 2.7 mM KCl, and 0.01% Tween-20 and added to the pre-spotted compound. The peptide substrate containing a fluorophore/quencher pair was diluted in the same assay buffer and added to the compound/enzyme mix initiating the reaction. The reaction incubated at room temperature for about 45 minutes. A concentrated developer solution was diluted in the assay buffer, and added to the reaction. The reaction was incubated at room temperature for about 15 minutes and relative fluorescence was read on an instrument reader.
The second assay is similar to the first assay described above, except that preincubation is carried out for about 3 hours after the enzyme is introduced. The test compound was suspended in, and titrated in DMSO. It was then spotted into a 384-well test plate. The enzyme, HDAC 1, was diluted in the same assay buffer as used in the previous assay and added to the pre-spotted compound. The enzyme/compound mix was incubated at room temperature for about 3 hours. The peptide substrate containing a fluorophore/quencher pair was diluted in the assay buffer and added to the compound/enzyme mix initiating the reaction. The reaction incubated at room temperature for 45 minutes. A concentrated developer solution was diluted in the assay buffer, and added to the reaction. The reaction was incubated at room temperature for about 15 minutes and relative fluorescence was read on an instrument reader.

CDK2 = CDK2 (Homo sapiens, UniProt P24941); test: CDK2 inhibition; assay type: biochemical

HDAC 1, sequence (Q13547 whole entry, species assumed): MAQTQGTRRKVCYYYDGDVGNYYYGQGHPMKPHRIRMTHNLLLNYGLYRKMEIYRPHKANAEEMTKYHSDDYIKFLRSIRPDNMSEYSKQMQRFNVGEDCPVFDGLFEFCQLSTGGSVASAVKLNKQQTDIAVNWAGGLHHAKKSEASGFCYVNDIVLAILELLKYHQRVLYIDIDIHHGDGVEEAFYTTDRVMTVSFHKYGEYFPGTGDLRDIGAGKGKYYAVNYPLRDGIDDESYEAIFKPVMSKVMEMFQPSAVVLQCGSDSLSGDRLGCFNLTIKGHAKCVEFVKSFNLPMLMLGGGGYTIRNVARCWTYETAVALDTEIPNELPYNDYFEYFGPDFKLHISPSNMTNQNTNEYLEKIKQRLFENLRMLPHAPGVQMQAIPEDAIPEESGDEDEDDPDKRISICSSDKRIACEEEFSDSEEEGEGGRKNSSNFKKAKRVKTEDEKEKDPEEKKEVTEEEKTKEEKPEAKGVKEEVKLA

Compound | IC50 (HDAC 1) [µM] | IC50 (CDK2) [µM]
Cc1nc2ccccn2c1-c1ccnc(Nc2ncc(C(=O)NO)s2)c1 [Example 73, N-hydroxy-2-(4-(2-methylimidazo[1,2-a]pyridin-3-yl)pyridin-2-ylamino)thiazole-5-carboxamide] | 0.185 | 1.68
Cc1nc2cc(N3CCOCC3)ccn2c1-c1ccnc(Nc2ccc(C(=O)Nc3ccccc3N)cc2)n1 [Example 23, N-(2-Amino-phenyl)-4-[4-(2-methyl-7-morpholin-4-yl-imidazo[1,2-a]pyridin-3-yl)-pyrimidin-2-ylamino]-benzamide] | 5.29 | 0.67
Cc1nc2ccccn2c1-c1ccnc(Nc2cccc(C(=O)NO)c2)n1 [Example 3, N-Hydroxy-3-[4-(2-methyl-imidazo[1,2-a]pyridin-3-yl)-pyrimidin-2-ylamino]-benzamide] | 0.011 | 0.18
Cc1nc2ccc(C(=O)NCCN(C)C)cn2c1-c1ccnc(Nc2ccc(C(=O)Nc3ccccc3N)cc2)n1 [Example 37, 3-(2-(4-(2-aminophenylcarbamoyl)phenylamino)pyrimidin-4-yl)-N-(2-(dimethylamino)ethyl)-2-methylimidazo[1,2-a]pyridine-6-carboxamide] | 0.132 | 1.88
Cc1nc2ccccn2c1-c1ccnc(Nc2ccc(C(=O)NO)cn2)n1 [Example 64, N-hydroxy-6-(4-(2-methylimidazo[1,2-a]pyridin-3-yl)pyrimidin-2-ylamino)nicotinamide] | 0.094 | 0.52
Cc1nc2cc(OCCN(C)C)ccn2c1-c1ccnc(Nc2ccc(C(=O)Nc3ccccc3N)cc2)n1 [Example 30, N-(2-Amino-phenyl)-4-{4-[7-(2-dimethylamino-ethoxy)-2-methyl-imidazo[1,2-a]pyridin-3-yl]-pyrimidin-2-ylamino}-benzamide] | 0.118 | 1.07
COCCOc1ccn2c(-c3ccnc(Nc4ccc(C(=O)Nc5ccccc5N)cc4)n3)c(C)nc2c1 [Example 31, N-(2-Amino-phenyl)-4-{4-[7-(2-methoxy-ethoxy)-2-methyl-imidazo[1,2-a]pyridin-3-yl]-pyrimidin-2-ylamino}-benzamide] | 0.243 | 0.4
O=C(NO)c1ccc(N(CC(F)(F)F)c2nccc(-c3cnc4ccccn34)n2)cc1 [Example 57, N-Hydroxy-4-[(4-imidazo[1,2-a]pyridin-3-yl-pyrimidin-2-yl)-(2,2,2-trifluoro-ethyl)-amino]-benzamide] | 0.147 | 2.87
Cc1nc2ncccn2c1-c1ccnc(Nc2ccc(C(=O)NO)cc2)n1 [Example 21, N-Hydroxy-4-[4-(2-methyl-imidazo[1,2-a]pyrimidin-3-yl)-pyrimidin-2-ylamino]-benzamide] | 0.289 | 1.18
Nc1ccccc1NC(=O)c1ccc(Nc2cc(-c3cnc4ccccn34)ncn2)cc1 [Example 55, N-(2-Amino-phenyl)-4-(6-imidazo[1,2-a]pyridin-3-yl-pyrimidin-4-ylamino)-benzamide] | 0.2 | > 40
COCCNC(=O)c1ccc2nc(C)c(-c3ccnc(Nc4ccc(C(=O)Nc5ccccc5N)cc4)n3)n2c1 [Example 38, 3-(2-(4-(2-aminophenylcarbamoyl)phenylamino)pyrimidin-4-yl)-N-(2-methoxyethyl)-2-methylimidazo[1,2-a]pyridine-6-carboxamide] | 0.312 | 2.74
Cc1nc2ccccn2c1-c1ccnc(Nc2ncc(C(=O)NO)cn2)c1 [Example 74, N-hydroxy-2-(4-(2-methylimidazo[1,2-a]pyridin-3-yl)pyridin-2-ylamino)pyrimidine-5-carboxamide] | 0.104 | 6.47
Cc1nc2ccc(C(F)(F)F)cn2c1-c1ccnc(Nc2ccc(C(=O)Nc3ccccc3N)cc2)n1 [Example 12, N-(2-Amino-phenyl)-4-[4-(2-methyl-6-trifluoromethyl-imidazo[1,2-a]pyridin-3-yl)-pyrimidin-2-ylamino]-benzamide] | > 10 | 0.32
Cc1nc2ccccn2c1-c1ccnc(Nc2nc(C(=O)NO)cs2)n1 [Example 61, N-hydroxy-2-(4-(2-methylimidazo[1,2-a]pyridin-3-yl)pyrimidin-2-ylamino)thiazole-4-carboxamide] | 1.8 | 0.56
COc1ccn2c(-c3ccnc(Nc4ccc(C(=O)NO)cn4)c3)c(C)nc2c1 [Example 77, N-hydroxy-6-(4-(7-methoxy-2-methylimidazo[1,2-a]pyridin-3-yl)pyridin-2-ylamino)nicotinamide] | 0.18 | 
Cc1nc2ccccn2c1-c1ccnc(Nc2csc(C(=O)NO)c2)n1 [Example 71, N-hydroxy-4-(4-(2-methylimidazo[1,2-a]pyridin-3-yl)pyrimidin-2-ylamino)thiophene-2-carboxamide] | 0.185 | 0.026
Cc1nc2ccccn2c1-c1ccnc(Nc2ncc(C(=O)NO)s2)n1 [Example 65, N-hydroxy-2-(4-(2-methylimidazo[1,2-a]pyridin-3-yl)pyrimidin-2-ylamino)thiazole-5-carboxamide] | 0.109 | 1.86
O=C(NO)c1ccc(Nc2ncc(F)c(-c3cnc4ccccn34)n2)cc1 [Example 51, 4-(5-Fluoro-4-imidazo[1,2-a]pyridin-3-yl-pyrimidin-2-ylamino)-N-hydroxy-benzamide] | 0.211 | 0.014
Cc1nc2c(F)cccn2c1-c1ccnc(Nc2ccc(C(=O)NO)cc2)n1 [Example 44, 4-[4-(8-Fluoro-2-methyl-imidazo[1,2-a]pyridin-3-yl)-pyrimidin-2-ylamino]-N-hydroxy-benzamide] | 0.251 | 0.09
Cc1nc2cc(OCCN3CCOCC3)ccn2c1-c1ccnc(Nc2ccc(C(=O)Nc3ccccc3N)cc2)n1 [Example 29, N-(2-aminophenyl)-4-(4-(2-methyl-7-(2-morpholinoethoxy)imidazo[1,2-a]pyridin-3-yl)pyrimidin-2-ylamino)benzamide] | 0.315 | 2.13
Cc1nc2ccccn2c1-c1ccnc(Nc2cnc(C(=O)NO)cn2)c1 [Example 76, N-hydroxy-5-(4-(2-methylimidazo[1,2-a]pyridin-3-yl)pyridin-2-ylamino)pyrazine-2-carboxamide] | 0.526 | 
Cc1nc2ccccn2c1-c1ccnc(Nc2nnc(C(=O)NO)s2)c1 [Example 75, N-hydroxy-5-(4-(2-methylimidazo[1,2-a]pyridin-3-yl)pyridin-2-ylamino)-1,3,4-thiadiazole-2-carboxamide] | 0.669 | 

Continued, values first:

IC50 (HDAC 1) [µM] | IC50 (CDK2) [µM] | Compound
0.053 | 13.1 | Cc1nc2ccccn2c1-c1ccnc(Nc2ccc(C(=O)Nc3ccccc3N)cc2)c1 [Example 54, N-(2-Amino-phenyl)-4-[4-(2-methyl-imidazo[1,2-a]pyridin-3-yl)-pyridin-2-ylamino]-benzamide]
0.993 | 0.04 | Cc1nc2ccccn2c1-c1ccnc(Nc2cc(C(=O)Nc3ccccc3N)cs2)n1 [Example 59, N-(2-aminophenyl)-5-(4-(2-methylimidazo[1,2-a]pyridin-3-yl)pyrimidin-2-ylamino)thiophene-3-carboxamide]
0.295 | 0.16 | Nc1ccccc1NC(=O)c1ccc(Nc2nccc(-c3c(C(F)(F)F)nc4ccccn34)n2)cc1 [Example 16, N-(2-Amino-phenyl)-4-[4-(2-trifluoromethyl-imidazo[1,2-a]pyridin-3-yl)-pyrimidin-2-ylamino]-benzamide]
0.388 | 0.29 | COc1ccc2nc(C)c(-c3ccnc(Nc4ccc(C(=O)Nc5ccccc5N)cc4)n3)n2c1 [Example 42, N-(2-Amino-phenyl)-4-[4-(6-methoxy-2-methyl-imidazo[1,2-a]pyridin-3-yl)-pyrimidin-2-ylamino]-benzamide]
0.146 | 0.134 | Cc1nc2ccccn2c1-c1ccnc(Nc2ccc(C(=O)Nc3ccccc3N)cc2)n1 [Example 2, N-(2-Amino-phenyl)-4-(4-(2-methylimidazo[1,2-a]pyridin-3-yl)-pyrimidin-2-ylamino)-benzamide]
> 50 | 0.144 | Nc1ccccc1NC(=O)c1cccc(Nc2nccc(-c3cnc4ccccn34)n2)c1 [Example 8, N-(2-Amino-phenyl)-3-(4-imidazo[1,2-a]pyridin-3-yl-pyrimidin-2-ylamino)-benzamide]
> 10 | 0.53 | COC(=O)c1ccn2c(-c3ccnc(Nc4ccc(C(=O)Nc5ccccc5N)cc4)n3)c(C)nc2c1 [Example 26, Methyl 3-(2-(4-(2-aminophenylcarbamoyl)phenylamino)pyrimidin-4-yl)-2-methylimidazo[1,2-a]pyridine-7-carboxylate]
0.164 | 0.03 | Cc1nc2ccccn2c1-c1ccnc(Nc2cc(C(=O)NO)cs2)n1 [Example 60, N-hydroxy-5-(4-(2-methylimidazo[1,2-a]pyridin-3-yl)pyrimidin-2-ylamino)thiophene-3-carboxamide]
> 50 |  | Cc1nc2ccccn2c1-c1ccnc(Nc2cccc(C(=O)Nc3ccccc3N)c2)n1 [Example 4, N-(2-Amino-phenyl)-3-[4-(2-methyl-imidazo[1,2-a]pyridin-3-yl)-pyrimidin-2-ylamino]-benzamide]
